Values quoted from earlier work in US20250177407A1 (Closed Loop Medicine Ltd., priority 2023, published 2025).
Like-named read-outs stand apart in the source and are kept apart here. Marks after values point to notes of the source that are not given here.

Experiments:
[1] = not given; remark: listed apart in the source
[2] = not given; remark: listed apart in the source
[3] = test system: patients with nonvalvular AF; conditions: ROCKET-AF
[4] = not given; remark: listed apart in the source
[5] = not given; remark: listed apart in the source
factor Xa activity = factor Xa activity (Homo sapiens, UniProt P00742)
Sequence of factor Xa activity (P00742 235-488 limits assumed): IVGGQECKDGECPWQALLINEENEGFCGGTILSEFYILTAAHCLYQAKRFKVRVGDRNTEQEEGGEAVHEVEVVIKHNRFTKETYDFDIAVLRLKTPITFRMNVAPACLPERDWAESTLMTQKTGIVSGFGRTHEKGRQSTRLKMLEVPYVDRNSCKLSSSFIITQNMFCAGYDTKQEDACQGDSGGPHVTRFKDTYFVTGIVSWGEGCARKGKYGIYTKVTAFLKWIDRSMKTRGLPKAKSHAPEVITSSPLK
Sequence of factor Xa activity (P00742 41-179 partner limits assumed): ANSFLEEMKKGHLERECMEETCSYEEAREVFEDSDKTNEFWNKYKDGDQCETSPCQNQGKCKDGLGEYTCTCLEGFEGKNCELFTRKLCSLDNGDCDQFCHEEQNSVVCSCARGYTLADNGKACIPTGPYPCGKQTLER

patients with AF = conditions: management of AF
[6] = clearance adjustment, comedication

**Q.** What does the source list for `O=C(NC[C@H]1CN(c2ccc(N3CCOCC3=O)cc2)C(=O)O1)c1ccc(Cl)s1` [rivaroxaban]?
**A.** bioavailability (20 mg tablets, fasting, healthy subjects): approximately 66%; variability in drug plasma levels for a given dose (between patients): 6- to 10 fold; half-life (elderly): 11 to 13 h; half life (elderly patients): ~12 h; half-life (healthy volunteers): 5 to 9 h; fraction of absorbed drug eliminated unchanged via the kidney (human, in vivo): 30%; fraction of absorbed drug metabolised by hepatic CYP 3A4/5 and CYP-independent enzymes (human, in vivo): Approximately 60%; time to peak levels (once daily immediate release with food): 1 to 2 h; bioavailability (oral 2.5 and 10 mg tablets, not affected by food): 80-100%; time to peak concentration (oral administration): 2 to 4 h; half-life (population not specified): 5 to 9 h; half life (young patients): 5 to 9 h; plasma protein binding [1]: 92-95%; slope of prothrombin time versus plasma concentration (prothrombin time; Esmueti et al. (2022), Fisherbrand reagent): 0.018 s/(μg/ L); Hill (prothrombin time; Zhao et al. (2022)): 1.37 ^b; slope of prothrombin time versus plasma concentration (prothrombin time; Zhao et al. (2022)): 0.0018 ^b s/(μg/L); interethnic differences in PK and PD characteristics ([2]; Caucasian, African-American, Hispanic, Japanese, Chinese patients (EMA)): no clinically relevant interethnic differences; higher exposure compared to other ethnicities ([2]; healthy Japanese subjects, on average (FDA)): 20-40%; increase in AUC compared with healthy subjects ([2]; mild (Child-Pugh A) hepatic impairment): 15%; increase in exposure ([2]; mild renal impairment (CrCl 50-79 mL/min)): 44%; increase in the effect-time curve AUC ([2]; moderate hepatic impairment): 159%; prothrombin time ([2]; moderate hepatic impairment): significant prolongation; increase in exposure ([2]; moderate renal impairment (CrCl 30-49 mL/min)): 52%; increase in exposure ([2]; severe renal impairment (CrCl<30 mL/min)): 64%; rate of fatal stroke [3]: 1.7 % per year; risk of intracranial bleeds [3]: 0.5%; θCL/F, P-gp inhibitor ([4]; clearance adjustment, P-gp inhibitor comedication): 0.996 Proportion; θCL/F, VTE ≤72 hr ([4]; clearance adjustment, VTE prevention after hip or knee surgery, less than 72 hours): 1.04 Proportion; θCL/F, VTE >72 hr ([4]; clearance adjustment, VTE prevention after hip or knee surgery, more than 72 hours): 1.29 Proportion; θCL/F, ACS ([4]; clearance adjustment, acute coronary syndrome): 1.14 Proportion; θCL/F, CYP3A4 inducer [4, 6]: 1.3 Proportion; θCL/F, Medium CYP3A4 inhibitor [4, 6]: 0.863 Proportion; θCL/F, Strong CYP3A4 inhibitor [4, 6]: 0.978 Proportion; θCL/F, Weak CYP3A4 inhibitor [4, 6]: 0.939 Proportion; θCL/F, AF ([4]; clearance adjustment, stroke prevention in AF): 0.849 Proportion; θV/F, Age ([4]; covariate effect of age on V/F): −0.189 Power; θCL/F, Weight ([4]; covariate effect of body weight on CL/F): −0.278 Power; θV/F, Weight ([4]; covariate effect of body weight on V/F): 0.216 Power; θCL/F, CRCL ([4]; covariate effect of creatinine clearance on CL/F): 0.406 Power; θV/F, Sex ([4]; covariate effect of sex on V/F): 0.889 Proportion; ω^2CL/F ([4]; inter-individual variability): 0.167 Variance; ω^2CL/F, V/F ([4]; inter-individual variability): 0.0674 Covariance; ω^2Ka ([4]; inter-individual variability): 0.628 Variance; ω^2V/F ([4]; inter-individual variability): 0.0391 Variance; CL/F, apparent clearance ([4]; population PK estimate): 6.58 L/h; Ka, first-order absorption rate constant ([4]; population PK estimate): 0.821 h⁻¹; V/F, apparent volume of distribution ([4]; population PK estimate): 62.5 L; D50 ([4]; relative bioavailability model): 14.4 mg; σ^2prop ([4]; residual variability): 0.203 Variance; increase in drug level exposure (AUC) ([5]; CrCl = 30, relative to median CrCl of 69 for the RE-LY study data): 1.8 fold; increase in drug level exposure (AUC) ([5]; CrCl = 50, relative to median CrCl of 69 for the RE-LY study data): 1.3 fold; increase in drug level exposure (AUC) ([5]; South Asians compared to other ethnicities): ~26% increase in South Asians compared to; increase in drug level exposure (AUC) per year older ([5]; age, compared to 72 yr): 0.41% increase per year older compared to 72 yr; decrease in drug level exposure (AUC) ([5]; comedication PPIs): ~13% decrease; increase in drug level exposure (AUC) ([5]; comedication amiodarone): 12% increase; increase in drug level exposure (AUC) ([5]; comedication verapamil): 23% increase; increase in drug level exposure (AUC) ([5]; females compared to men): ~9% increase in females compared to men; decrease in Vd ([5]; haemoglobin above 14.3 g · dL^−1): by 4%/1 g · dL^−1 above 14.3 g · dL^−1; effect of low weight on Cmax ([5]; in vivo): increase Cmax; increase in drug level exposure (AUC) ([5]; patients with heart failure): ~7% increase in patients with HF; increase in distribution volume (Vd) per kg above 80 kg ([5]; weight): in distribution volume (Vd) by 0.8%; Emax (factor Xa activity; Girgis et al. (2014)): 107%; Emax (factor Xa activity; Mueck et al. (2007)): 0.86 U/ml; Emax (factor Xa activity; Mueck et al. (2008b), KRS): 0.837 U/ml; Emax (factor Xa activity; Mueck et al. (2008b), day 1, HRS): 0.881 U/ml; Emax (factor Xa activity; Mueck et al. (2008b), steady state, HRS): 0.942 U/ml; FXa0 (second entry of the cell) (factor Xa activity; Tanigawa et al. (2013)): 0.928 U/mL; Hill (factor Xa activity; Tanigawa et al. (2013)): 1.16

**Q.** Which reduction of stroke (patients with AF) does the source give for `CC(=O)CC(c1ccccc1)c1c(O)c2ccccc2oc1=O` (stereo not shown) [warfarin] here?
**A.** The reduction of stroke was “about 60%”.

**Q.** What about the “rate of fatal stroke” value [3] of the same compound?
**A.** The value was 2.2 % per year.
